Read-outs that look alike come from different tables or passages of the source. Where a SMILES comes first, the peptide text is derived from it.
Columns and labels:
Calu-3 cells = conditions: read-out: IC50 Calu-3 (+); HER2-overexpressing lung cancer cells, 72 h
Procedure: (§4) Cellular assays were performed using BT-474, SKBR-3, Calu-3, MCF-7, and MCF-10A cells (ATCC). Antiproliferative activity was measured by CellTiter-Glo®, [49] a luminescence-based cell viability assay. In a 96-well plate, 1 × 10^4 cells/well were seeded and incubated overnight at 37°C and 5% CO2. Stock solutions of peptidomimetics were prepared by dissolving 1.5 mg/mL of compounds in DMSO. Stock solution of the compounds were diluted using the serum-free medium to prepare solutions of different concentrations of compounds. Compounds in the medium were added to the wells in triplicate and incubated for 72 h. As controls, cells treated with 1% sodium dodecyl sulfate and 1% dimethyl sulfoxide were used. At the end of the experiment, CellTiter-Glo® reagent was added, and luminescence was measured by a plate reader. A dose response curve was generated using luminescence vs concentration of compounds and IC50 values were obtained using Prism® (GraphPad Software, La Jolla, CA). Experiments were repeated at least three times to obtain standard deviation values.

BT-474 breast tumors = test: Xenograft model of breast cancer; format: in vivo, athymic nude mice; conditions: BT-474 xenograft, 19 days; 18 and 9 4 mg/kg twice a week intratumor; lapatinib 10 mg/kg once a week i.p.
Procedure: All animals were handled according to the approved protocol from IACUC at the University of Louisiana at Monroe. Athymic nude mice (Foxn1nu/Foxn1+, female, 4–5 weeks) were purchased from Harlan Laboratories (Indianapolis, IN) and maintained in the ULM School of Pharmacy vivarium. After acclimatization of animals to the local environment, estrogen (17β-estradiol) pellets (0.72 mg, 90-day release) were implanted subcutaneously in the mice, under anesthesia. Tumors were induced in mice as described previously. Orthotopic injection of about three-million BT-474 cells suspended in the serum-free RPMI-1640 medium was done at the second left mammary fat pad. Mice were observed every day for tumor formation, and the tumor diameter was measured with calipers, and the tumor volume was calculated. When a tumor diameter of 3 mm was achieved, mice were randomly assigned to four groups of six. These groups contain negative control (vehicle control), positive control (lapatinib), and two treatment groups (compound 9 and 18). The mice were treated for 19 days. Compound 18 was administered near the base of the tumor at a dose of 4 mg/kg twice a week. Control groups received intratumor saline injections twice a week, and lapatinib was administered at 10 mg/kg once a week by intraperitoneal injection. The marker to end the experiments was based on tumor doubling time rather than tumor volume. Since tumor doubling time was 4 times in 19 days, experiments were stopped on the 19th day. Tumor-bearing mice were sacrificed, and three tumors per group were harvested and maintained at –80°C and the remaining three tumors were fixed in paraffin blocks. Microsections (5 µm) of paraffin fixed tumors were stained with hemotoxylin and eosin (H&E) and observed for necrosis by a pathologist. All data are presented as the mean ± SE. Statistical differences were evaluated by Mann-Whitney U test as well as one-way ANOVA analysis of data from different groups, and the criterion for statistical significance was p < 0.05.

[1] = system: phosphorylated HER2 in BT-474 cells; test: Western blot of phosphorylated HER2; format: cell-based; conditions: 0.5 and 1 µM
Procedure: (§1) BT-474, Calu-3, and SKOV-3 cells were treated with compounds at 1 µM and lapatinib (positive control) at 0.07 µM. Cells without any treatment and cells treated with control compound were employed as negative controls in these studies. Cells were incubated for 36 h, washed and trypsinized. The cell lysate was prepared using cell lysis buffer containing protease inhibitor and phosphatase inhibitor. The protein concentration in each sample was determined using Bradford’s assay. 40 μg of protein from each sample was loaded on Novex® 4–20% tris-glycine gels and western blot analysis was carried out as described in our previous publication. Antibodies for the detection of total HER2 protein (t-HER2) and phosphorylated HER2 protein (p-HER2) were used at 1:3000 dilutions. After addition of the substrate and enhancer solutions from a Super Signal-enhanced chemiluminescence kit (Pierce, Rockford, IL) to the membrane, the images were captured using C-Digit Blot Scanner (LI-COR Biotechnology, Lincoln, NE). A representative Western blot image was used for the final presentation.

[2] = system: phosphorylated HER2 in Calu-3 cells; test: Western blot of phosphorylated HER2; format: cell-based
Procedure: as §1

[3] = biological target: T1, HER2 protein on BT-474 cells (Homo sapiens, UniProt P04626); test: Competitive binding assay with FITC-compound 5; conditions: 0.1 to 50 µM with 50 µM FITC-compound 5, BT-474 cells
T1 construct: incubated with HER2 expressing BT-474 cells lines along with fixed amount of FITC-compound 5; host or cells: BT-474
Procedure: BT-474 cell lines were coated on 96 well plates and after 24 hrs cells were washed. Varying amounts of compound 18 (0.1 to 50 µM) was incubated with HER2 expressing BT-474 cells lines along with fixed amount of FITC-compound 5 (50 µM). […] Readings were in triplicate. A graph of relative fluorescence with respect to concentration of compound 18 was plotted. As control fluorescence from FITC-compound 5 and cells without any treatment were used.

[4] = system: HER2 phosphorylation in tumor samples; test: Western blot of xenograft tumor samples; format: in vivo, athymic nude mice; conditions: treated tumors compared to control
Procedure: (§2) Western blot and PLA assay were carried out on tumor sections as described before. Immunoblot analysis was performed to evaluate the levels of total HER2 and phosphorylated HER2. Tumor sections were deparaffinized using xylene and rehydrated with decreasing concentrations of ethanol. Antigen retrieval on the microsections of the breast tumors was done in a steaming sodium citrate buffer (10 mM, 0.05% Tween-20, pH 6.0) for 5 min. The tumor sections were then used to analyze inhibition of HER2:HER3 dimerization using PLA.

[5] = biological target: T2, HER2:HER3 heterodimer in SKBR-3 cells (Homo sapiens, UniProt P04626); test: Proximity ligation assay (PLA); format: cell-based; conditions: 0.5 and 1 µM
T2 construct: indicating HER2:HER3 dimerization in SKBR-3 cells; host or cells: SKBR-3
Procedure: (§3) Proximity ligation assay was performed as described previously. […] Fixed cells were used for PLA assay. Cells were incubated with primary antibodies for 24 h and washed, and secondary antibodies PLA+ and PLA− were added. After incubation and washing, PLA detection reagent was added, and the cells were covered with a glass plate after mounting medium was added. Slides were viewed using an inverted microscope and a multiphoton microscope. Images were obtained at 40 and 60X.

[6] = biological target: T3, EGFR:HER2 heterodimer in SKBR-3 cells (Homo sapiens, UniProt P04626); test: Proximity ligation assay (PLA); format: cell-based; conditions: 0.5 and 1 µM
T3 construct: we probed for HER2:EGFR dimers with PLA probes in SKBR-3 cells; host or cells: SKBR-3
Procedure: as §3

SKOV-3 cells = conditions: read-out: IC50 SKOV-3(+); HER2-overexpressing ovarian cancer cells, 72 h
Procedure: as §4

[7] = biological target: T4, HER2:HER3 heterodimerization in tumor sections (Homo sapiens, UniProt P04626); test: PLA on xenograft tumor sections; format: in vivo, athymic nude mice
T4 construct: from tissue; host or cells: BT-474 xenograft tumours grown in athymic nude mice
Procedure: as §2

T1 sequence (P04626 23-1255): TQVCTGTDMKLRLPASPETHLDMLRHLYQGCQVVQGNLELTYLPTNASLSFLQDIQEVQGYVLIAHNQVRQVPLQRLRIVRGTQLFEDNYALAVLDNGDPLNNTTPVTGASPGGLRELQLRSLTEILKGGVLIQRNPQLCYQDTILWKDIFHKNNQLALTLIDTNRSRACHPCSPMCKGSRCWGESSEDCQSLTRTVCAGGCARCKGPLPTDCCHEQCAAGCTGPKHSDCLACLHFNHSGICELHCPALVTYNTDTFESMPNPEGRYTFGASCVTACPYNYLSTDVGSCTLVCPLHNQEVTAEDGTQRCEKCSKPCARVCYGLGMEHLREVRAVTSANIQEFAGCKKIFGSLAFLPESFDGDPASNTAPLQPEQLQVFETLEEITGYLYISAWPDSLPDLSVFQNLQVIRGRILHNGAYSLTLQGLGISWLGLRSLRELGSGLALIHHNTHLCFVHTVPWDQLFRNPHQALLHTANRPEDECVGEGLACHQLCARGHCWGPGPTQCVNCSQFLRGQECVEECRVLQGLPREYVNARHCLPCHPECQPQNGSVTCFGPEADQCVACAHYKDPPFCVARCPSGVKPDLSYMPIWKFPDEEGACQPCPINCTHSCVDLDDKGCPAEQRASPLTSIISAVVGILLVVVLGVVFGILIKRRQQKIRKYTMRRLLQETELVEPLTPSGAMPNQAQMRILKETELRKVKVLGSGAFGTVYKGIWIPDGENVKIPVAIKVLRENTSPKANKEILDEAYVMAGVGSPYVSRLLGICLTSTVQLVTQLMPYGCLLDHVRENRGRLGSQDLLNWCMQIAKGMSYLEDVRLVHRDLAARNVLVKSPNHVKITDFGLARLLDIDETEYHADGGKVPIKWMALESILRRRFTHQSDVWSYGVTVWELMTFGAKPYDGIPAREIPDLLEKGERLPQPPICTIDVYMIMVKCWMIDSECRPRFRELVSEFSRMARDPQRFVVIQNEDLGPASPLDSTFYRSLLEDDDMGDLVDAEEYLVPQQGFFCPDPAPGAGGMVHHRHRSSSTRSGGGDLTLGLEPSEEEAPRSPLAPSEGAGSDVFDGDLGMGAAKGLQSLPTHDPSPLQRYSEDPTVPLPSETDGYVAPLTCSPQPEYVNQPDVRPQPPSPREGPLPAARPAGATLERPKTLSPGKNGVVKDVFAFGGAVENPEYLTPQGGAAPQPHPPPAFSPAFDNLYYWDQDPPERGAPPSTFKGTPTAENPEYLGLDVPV
T2 sequence (P04626 23-1255, one chain of several): as the sequence (P04626 23-1255) above
T4 sequence (P04626 23-1255, one chain of several): as the sequence (P04626 23-1255) above
T3 sequence (P04626 23-1255, one chain of several): as the sequence (P04626 23-1255) above

`N=C(N)NCCC[C@@H]1NC(=O)[C@H]2CCCN2C(=O)[C@@H]2CCCN2C(=O)[C@H](CCCNC(=N)N)NC(=O)C[C@H](c2cccc3ccccc23)NC(=O)[C@H](Cc2ccccc2)NC(=O)[C@H](CC(=O)O)NC(=O)[C@H](CC(=O)O)NC(=O)[C@H](Cc2ccccc2)NC(=O)C[C@H](c2cccc3ccccc23)NC1=O` [compound 18, Cyclo(1,10)P^1p^2R^3(R-Anapa)^4F^5D^6D^7F^8(R-Anapa)^9R^10] (HELM PEPTIDE1{P.[dP].R.[O=C(C[C@@H](N[*:1])c1cccc2ccccc12)[*:2]].F.D.D.F.[O=C(C[C@@H](N[*:1])c1cccc2ccccc12)[*:2]].R}$PEPTIDE1,PEPTIDE1,1:R1-10:R2$$$V2.0) was tested, and the IC50 (Calu-3 cells) was 18 ± 13 nM, the “Tumor growth versus vehicle” value (BT-474 breast tumors) was “delay in tumor growth and tumor size” and the “Phosphorylation of HER2 (Western blot)” value [1] was “decreases the phosphorylation of HER2 in a concentration-dependent manner”. For the same molecule, the “Phosphorylation of HER2 (Western blot)” value [2] was “decreases the phosphorylation of HER2 in a concentration-dependent manner”, the “Competition with FITC-compound 5 (cell fluorescence)” value [3] was “decrease in the fluorescence intensity of cells” and the “HER2 phosphorylation in tumor samples (Western blot)” value [4] was “decrease in HER2 phosphorylation”. For the same molecule, the “Inhibition of HER2:HER3 heterodimerization (PLA)” value [5] was “inhibits heterodimerization in a concentration-dependent manner”, the “Inhibition of EGFR:HER2 heterodimerization (PLA)” value [6] was “inhibits both EGFR:HER2 and HER2:HER3 dimerization” and the IC50 (SKOV-3 cells) was 853 ± 102 nM. The IC50 (SKBR-3 cells; read-out: Antiproliferative activity (IC50 µM) SKBR-3 cells, Table 2, compound 18 and diastereoisomers) was 0.194 ± 0.046 µM, the IC50 (SKBR-3 cells; read-out: IC50 SKBR-3(+), HER2-overexpressing breast cancer cells, 72 h) was 0.194 ± 0.046 µM and the “HER2:HER3 heterodimerization in tumor sections (PLA)” value [7] was “diminished red fluorescence signals”.

Source: PMC5650337, “A peptidomimetic with a chiral switch is an inhibitor of epidermal growth factor receptor heterodimerization” (Oncotarget, 2017)
